From PMC2884014 (Biochemistry, 2010) come the findings set out here.

Common to all, as to format: biochemical
The target of assay [1] is T1, MurA (UDP-N-acetylglucosamine 1-carboxyvinyltransferase) (Enterobacter cloacae, UniProt P33038). Description: crystal structure at […] Å.
For assay [2], the target named is T1, MurA (UDP-N-acetylglucosamine 1-carboxyvinyltransferase). The assay is described as follows: crystal structure at […] Å. This is another data set of the same source.
The target of assay [3] is MurA (UDP-N-acetylglucosamine 1-carboxyvinyltransferase) (Escherichia coli, UniProt P0A749). Description: malachite green assay of residual MurA activity.
Chain of MurA (UDP-N-acetylglucosamine 1-carboxyvinyltransferase) (Escherichia coli, UniProt P0A749) (P0A749 whole entry): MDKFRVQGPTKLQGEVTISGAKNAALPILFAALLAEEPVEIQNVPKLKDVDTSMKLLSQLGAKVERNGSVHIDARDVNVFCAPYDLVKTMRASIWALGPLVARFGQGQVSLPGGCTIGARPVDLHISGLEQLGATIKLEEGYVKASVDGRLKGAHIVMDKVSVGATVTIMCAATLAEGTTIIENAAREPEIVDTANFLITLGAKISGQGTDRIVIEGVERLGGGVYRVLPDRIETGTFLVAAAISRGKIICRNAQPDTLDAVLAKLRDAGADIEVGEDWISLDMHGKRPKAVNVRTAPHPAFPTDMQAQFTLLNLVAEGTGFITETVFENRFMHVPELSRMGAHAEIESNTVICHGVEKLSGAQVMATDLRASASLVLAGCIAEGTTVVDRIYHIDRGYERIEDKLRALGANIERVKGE

Molecules are shown by their SMILES. Read-outs that look alike come from different tables or passages of the source.

T1 sequence (P33038 whole entry): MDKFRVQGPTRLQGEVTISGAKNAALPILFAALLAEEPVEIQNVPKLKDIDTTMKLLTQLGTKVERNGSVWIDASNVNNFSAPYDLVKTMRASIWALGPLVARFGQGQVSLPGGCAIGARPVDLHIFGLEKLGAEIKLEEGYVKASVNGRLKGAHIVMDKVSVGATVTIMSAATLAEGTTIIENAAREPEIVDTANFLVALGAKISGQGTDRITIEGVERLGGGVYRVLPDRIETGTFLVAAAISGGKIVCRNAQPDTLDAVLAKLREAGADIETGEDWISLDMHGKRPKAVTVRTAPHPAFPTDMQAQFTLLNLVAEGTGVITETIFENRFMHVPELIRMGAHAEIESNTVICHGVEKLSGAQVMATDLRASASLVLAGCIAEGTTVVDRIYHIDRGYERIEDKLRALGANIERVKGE

In assay [1], `C[C@@H]1O[C@@H]1P(=O)(O)O` [fosfomycin, (1R,2S)-1,2-epoxypropyl phosphonic acid] gave an IC50 of 250 ± 10 nM.

In assay [2], `CC1=C(O)C(=O)[C@@H]2O[C@@H]2C1=O` [terreic acid] displayed a half-inhibitory concentration (IC50) of 14 ± 0.6 µM. Moreover, in assay [3], the “malachite green assay of residual MurA activity” value was “terreic acid is a covalent inhibitor of the bacterial cell wall biosynthetic enzyme MurA from E. cloacae and E. coli in-vitro”.
